According to DBAASP:
Values after ≈ are worked out from the molar mass of the structure shown. Values joined by “and” are separate entries in the source; they are usually repeats but may differ in a detail not shown here. Equal values may be shown once.

Experiments:
Assay in all cases: ≥ marks a high value that may be exact or a test limit, other limits are often not marked, values filed in µg/mL are converted to µM
Pseudomonas aeruginosa = tested on: Pseudomonas aeruginosa
[1] = tested on: Staphylococcus aureus Q14-0320
[2] = tested on: Klebsiella pneumoniae Q14-0095
[3] = tested on: Campylobacter jejuni NCTC 11351
[4] = tested on: Klebsiella pneumoniae NCTC 13442
[5] = tested on: Acinetobacter baumannii Q12-0809
[6] = tested on: Klebsiella pneumoniae ATCC 700603
[7] = tested on: Acinetobacter baumannii Q13-0717
[8] = tested on: Pseudomonas aeruginosa Q14-0208
Escherichia coli = tested on: Escherichia coli
[9] = tested on: Pseudomonas aeruginosa ATCC 27853
[10] = tested on: Staphylococcus aureus NCTC 12493
[11] = tested on: Staphylococcus aureus ATCC 29213
[12] = tested on: Escherichia coli ATCC 25922
[13] = tested on: Staphylococcus aureus CGMCC 1.8721
[14] = tested on: Staphylococcus aureus UAMS-1
[15] = tested on: Acinetobacter baumannii B28-16
[16] = tested on: Enterococcus faecium V284-17
Escherichia coli K-12 = tested on: Escherichia coli K-12
[17] = tested on: Klebsiella pneumoniae ATCC 13883
[18] = tested on: Staphylococcus aureus USA 300
Escherichia coli E423-17 = tested on: Escherichia coli E423-17
[19] = tested on: Pseudomonas aeruginosa PAO1
[20] = tested on: Staphylococcus epidermidis 1457
[21] = tested on: Pseudomonas aeruginosa E411-17
[22] = tested on: Staphylococcus epidermidis CGMCC 1.4260
[23] = tested on: Klebsiella pneumoniae E406-17
[24] = tested on: Escherichia coli CGMCC 1.8732
[25] = tested on: Klebsiella pneumoniae CGMCC 1.1736
[26] = tested on: Enterococcus faecium ATCC 51559
[27] = tested on: Pseudomonas aeruginosa CGMCC 1.2421
[28] = tested on: Bacillus subtilis CICC 10034
[29] = tested on: Saccharomyces cerevisiae CICC 1002
[30] = tested on: Staphylococcus aureus CICC 10384
[31] = tested on: Listeria innocua CICC 10417
[32] = tested on: Candida albicans CICC 1965
[33] = tested on: Pseudomonas aeruginosa CICC 21636
Staphylococcus simulans = tested on: Staphylococcus simulans
Proteus mirabilis = tested on: Proteus mirabilis
[34] = tested on: Staphylococcus pseudintermedius MW767056
[35] = tested on: Aspergillus niger CICC 2124
[36] = tested on: Staphylococcus pseudintermedius
[37] = tested on: Serratia marcescens ATCC 4112
[38] = tested on: Escherichia coli CICC 10293
Staphylococcus sciuri = tested on: Staphylococcus sciuri
[39] = tested on: Staphylococcus cohnii MW767053
[40] = tested on: Staphylococcus aureus CICC 10306
[41] = tested on: Trichophyton mentagrophytes
Microsporum canis = tested on: Microsporum canis
[42] = tested on: Enterobacter cloacae CICC 21539
[43] = tested on: Microsporum canis MW768151
[44] = tested on: Salmonella enterica subsp. enterica serovar Paratyphi B CICC 10437
[45] = tested on: Staphylococcus haemolyticus
[46] = tested on: Streptococcus sanguinis ATCC 49295
[47] = tested on: Streptococcus gordonii ATCC 10558
[48] = tested on: Streptococcus mutans UA159
[49] = tested on: Streptococcus mutans GS-5

What does the source list for `C[C@H](NC(=O)[C@H](CCCN=C(N)N)NC(=O)[C@H](Cc1ccc(O)cc1)NC(=O)[C@H](Cc1cnc[nH]1)NC(=O)[C@H](Cc1c[nH]c2ccccc12)NC(=O)[C@H](CCCN=C(N)N)NC(=O)[C@H](Cc1c[nH]c2ccccc12)NC(=O)[C@H](C)NC(=O)[C@@H](NC(=O)CN)[C@@H](C)O)C(=O)N[C@@H](CCCN=C(N)N)C(=O)N[C@@H](CO)C(=O)O` [GTAWRWHYRARS]?
MIC (Pseudomonas aeruginosa): > 331 µM; MIC [1]: ≥ 82.8 µM; MIC [2]: ≥ 82.8 µM; MIC [3]: ≥ 82.8 µM; MIC [4]: ≥ 82.8 µM; MIC [5]: ≥ 82.8 µM; MIC [6]: > 82.8 µM; MIC [7]: ≥ 82.8 µM; MIC [8]: ≥ 82.8 µM; MIC (Escherichia coli): 82.8 µM (≈ 128 µg/mL); MIC [9]: 82.8 µM (≈ 128 µg/mL); MIC [10]: ≥ 82.8 µM; MIC [11]: > 82.8 µM

Which results are given for `CC[C@H](C)[C@H](NC(=O)[C@H](CCCNC(=N)N)NC(=O)[C@H](CCC(N)=O)NC(=O)[C@@H](NC(=O)[C@@H](NC(=O)[C@H](CCCNC(=N)N)NC(=O)[C@H](CCCCN)NC(=O)[C@H](Cc1ccccc1)NC(=O)CN)[C@@H](C)CC)C(C)C)C(=O)N[C@@H](CCCCN)C(=O)N[C@@H](CC(=O)O)C(=O)N[C@@H](Cc1ccccc1)C(=O)N[C@@H](CC(C)C)C(=O)N[C@@H](CCCNC(=N)N)C(=O)N[C@@H](CC(N)=O)C(=O)N[C@@H](CC(C)C)C(=O)N[C@H](C(N)=O)C(C)C` [GFKRIVQRIKDFLRNLV]?
MIC [12]: 4.4 µM (≈ 9.25 µg/mL); MIC [13]: 6.25 µM (≈ 13.1 µg/mL); MIC [14]: 7 µM and 3.1 µM; MIC [15]: 1.6 µM and 4 µM; MIC [16]: 2 µM (≈ 4.2 µg/mL); MIC (Escherichia coli K-12): 7.5 µM and 14 µM; MIC [17]: 3.1 µM (≈ 6.51 µg/mL); MIC [18]: 7.5 µM and 3.1 µM and 7 µM; MIC (Escherichia coli E423-17): 16 µM (≈ 33.6 µg/mL); MIC [19]: 25 µM (≈ 52.5 µg/mL); MIC [20]: 1.6 µM (≈ 3.36 µg/mL); MIC [21]: 16 µM (≈ 33.6 µg/mL); MIC [22]: 3.12 µM (≈ 6.57 µg/mL); MIC [23]: ≥ 32 µM; MIC [24]: 6.25 µM (≈ 13.1 µg/mL); MIC [25]: 6.25 µM (≈ 13.1 µg/mL); MIC [26]: 6.25 µM (≈ 13.1 µg/mL); MIC [27]: 6.25 µM (≈ 13.1 µg/mL)

Which MIC [28] does the source give for `CC[C@H](C)[C@H](NC(=O)[C@@H](NC(=O)[C@H](CO)NC(=O)[C@H](Cc1ccccc1)NC(=O)[C@H](CC(C)C)NC(=O)[C@H](CCCN=C(N)N)NC(=O)[C@@H](NC(=O)[C@H](CC(C)C)NC(=O)CN)[C@@H](C)O)C(C)C)C(=O)N[C@@H](CCCCN)C(=O)O` [GLTRLFSVIK] here?
Its MIC is 28.2 µM (≈ 32 µg/mL).

What about the MIC [29] of the same molecule?
Its MIC is no less than 56.5 µM.

What about the MIC [30] of the same molecule?
The MIC was 14.1 µM (≈ 16 µg/mL).

What about the MIC [31] of the same molecule?
The MIC was 28.2 µM (≈ 32 µg/mL).

And the MIC [32]?
The MIC was 28.2 µM (≈ 32 µg/mL).

What about the MIC [33] of the same molecule?
Its MIC is 7.06 µM (≈ 8 µg/mL).

What about the MIC (Staphylococcus simulans) of the same molecule?
Its MIC is no less than 226 µM.

And the MIC (Proteus mirabilis)?
The MIC was no less than 226 µM.

And the MIC [34]?
Its MIC is 28.2 µM (≈ 32 µg/mL).

What about the MIC [35] of the same molecule?
The MIC was no less than 56.5 µM.

And the MIC [36]?
Its MIC is no less than 56.5 µM.

What about the MIC [37] of the same molecule?
Its MIC is 7.06 µM (≈ 8 µg/mL).

What about the MIC [38] of the same molecule?
Its MIC is 14.1 µM (≈ 16 µg/mL).

What about the MIC (Staphylococcus sciuri) of the same molecule?
Its MIC is no less than 226 µM.

What about the MIC [39] of the same molecule?
Its MIC is no less than 56.5 µM.

And the MIC [40]?
Its MIC is 14.1 µM (≈ 16 µg/mL).

And the MIC [41]?
Its MIC is 0.882 µM (≈ 1 µg/mL).

What about the MIC (Microsporum canis) of the same molecule?
Its MIC is 0.624 µM (≈ 0.707 µg/mL).

What about the MIC [42] of the same molecule?
The MIC was 14.1 µM (≈ 16 µg/mL).

And the MIC [43]?
The MIC was 0.882 µM (≈ 1 µg/mL).

What about the MIC [44] of the same molecule?
The MIC was 28.2 µM (≈ 32 µg/mL).

And the MIC [45]?
The MIC was no less than 226 µM.

With `CC(C)C[C@H](NC(=O)[C@H](CCCN=C(N)N)NC(=O)[C@H](Cc1ccccc1)NC(=O)[C@H](Cc1ccccc1)NC(=O)[C@@H](N)[C@@H](C)O)C(=O)N[C@@H](Cc1ccccc1)C(=O)N[C@@H](CC(N)=O)C(=O)N[C@@H](CCCN=C(N)N)C(=O)N[C@@H](CO)C(=O)N[C@@H](Cc1ccccc1)C(=O)N[C@H](C(=O)NCC(=O)N[C@@H](CCCN=C(N)N)C(=O)N[C@@H](CCCN=C(N)N)C(=O)N[C@@H](CCCN=C(N)N)C(=O)N[C@@H](CCCN=C(N)N)C(=O)N[C@@H](CO)C(=O)N[C@H](C(=O)N[C@@H](CCC(N)=O)C(=O)N[C@@H](Cc1c[nH]c2ccccc12)C(=O)N[C@@H](CS)C(=O)N[C@@H](C)C(=O)O)C(C)C)[C@@H](C)O` [TFFRLFNRSFTGRRRRSVQWCA] as the molecule, how does the MIC [46] read?
Its MIC is no less than 35.7 µM.

What about the MIC [47] of the same molecule?
The MIC was 17.8 µM (≈ 49.8 µg/mL).

What about the MIC [48] of the same molecule?
Its MIC is 3.82 µM (≈ 10.7 µg/mL).

What about the MIC [49] of the same molecule?
Its MIC is 4.46 µM (≈ 12.4 µg/mL).
